According to US20050101542A1, “Combination therapy for controlling appetites” (Regents of the University of California, priority 2002, published 2005):
Entries after “also recorded” stand apart in the source; their conditions may differ.

What was measured:
[1] = Acute food intake in 24-h food-deprived rats, i.p. dosing; format: in vivo, rat; settings: 24-h food-deprived rats, i.p.
Experimental: Feeding experiments. Acute experiments. Food intake was measured in 24-h food-deprived rats (Navarro, et al., J. Neurochem., 67:1982-1991 (1996)), administering drugs 15 min before food presentation. Subchronic experiments. Ad libitum fed rats received vehicle injections for three days. On day four, the animals were divided in two equal groups and gave them daily injections of vehicle or OEA (5 mg per kg at 1900 h) for 7 consecutive days, while measuring body weight, food intake and water intake.
The effects of systemically administered OEA or an OEA-like compound or OEA-like modulator on food intake in rats can be assessed using a 24 h fast. […] To define the selectivity of this response, various OEA analogs were evaluated for their ability to produce hypophagia.

Soleus muscle = experiment: [14C]oleate oxidation to CO2 in soleus muscle; format: cell-based, rat
From the text: This example illustrates the effect of OEA on fat metabolism and methods for studying the same. Oleoylethanolamide (OEA) decreases body weight not only by suppressing appetite, but also by possibly enhancing body fat catabolism. The effects of OEA on fatty acid oxidation in major body-fat burning tissues (soleus muscle, liver, cultured cardiac myocytes and astrocytes) was examined. […] In addition, OEA induces a significant mobilization of triacylglycerol stores from primary white adipose tissue cells. Table 4 details the methods and effects of OEA on fatty acid oxidation in these cells. Structure-activity relationship experiments provide evidence that the effect of OEA on skeletal muscle fatty acid oxidation is specific (FIG. 8).

human PPARα = target: T1, human PPARα (Homo sapiens, UniProt Q07869); experiment: GAL4 chimeric receptor transactivation assay in HeLa cells, PPARα; format: cell-based; settings: for PPARα activation: HeLa transactivation assay
T1 construct: expressed in transfected cells; host or cells: HeLa (clonal reporter line HLR, stably transfected with pFA-PPARα)
T1 sequence (Q07869 239-466 limits assumed): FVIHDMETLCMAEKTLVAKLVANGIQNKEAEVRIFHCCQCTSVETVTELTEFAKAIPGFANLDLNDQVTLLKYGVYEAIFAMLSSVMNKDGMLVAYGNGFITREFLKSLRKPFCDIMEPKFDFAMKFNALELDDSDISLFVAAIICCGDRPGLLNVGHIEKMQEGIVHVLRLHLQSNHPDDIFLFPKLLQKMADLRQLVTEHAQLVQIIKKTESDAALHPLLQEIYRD
Experimental: Eighteen hours following transfection, the culture media was replaced with supplemented DMEM containing hygromycin (100 μg-ml^−1, Calbiochem). After 4 weeks in culture, the surviving clones were isolated and analyzed by luciferase assay. […] The cells were cultured in supplemented DMEM containing hygromycin and G418. For transactivation assays, cells were seeded in 6-well plates (50,000 cells per well) and incubated for 7 hours in supplemented DMEM containing hygromycin and G418, plus appropriate concentrations of test compounds. Dual-luciferase reporter assay system (Promega) and an MLX Microtiter® plate luminometer (Dynex) were used to determine luciferase activity in cell lysates.

[2] = Food intake in capsaicin-treated (sensory deafferented) rats, Example 2; format: in vivo, rat; settings: OEA 10 mg per kg i.p.
Experimental: FAE were dissolved in dimethylsulphoxide (DMSO) and administered in 70% DMSO in sterile saline (acute treatments) Or 5% Tween 80/5% propylenglycol in sterile saline (subchronic treatments) (1 ml per kg, i.p.). Capsaicin was administered in 10% Tween 80/10% ethanol/80% saline; SR141716A, SR144528, CCK-8 and CP-93129 in 5% Tween 80/5% propylenglycol/90% saline (1 ml per kg, i.p.).

[3] = Acute feeding experiments in free-feeding mice (C57BL/6J, wild-type, PPARα-null); format: in vivo, mouse; settings: for feeding in PPARα-deficient mice: OEA 10, Wy-14643 40, d-fenfluramine 4 mg-kg^−1, CCK-8 25 μg-kg^−1, i.p.; for food intake in C57BL/6J mice: i.p., Wy-14643 40, GW7647 20, clofibrate 25-100, GW501516 1-10, ciglitazone 15 mg kg^−1; for meal pattern analysis (eating latency, meal size, post-meal interval): C57BL/6J mice
Experimental: Acute experiments. Drugs or appropriate vehicles (saline, for CCK-8 and d-fenfluramine; dimethylsulfoxide/saline, 70/30, for all other agents; 4 ml-kg^−1; i.p.) were administered at 5:00-5:30 PM to free-feeding mice, which were habituated to the experimental setting.

[4] = Capsaicin sensory deafferentation and feeding, Example 8; format: in vivo, rat; settings: CCK-8 10 μg/kg, CP 93129 1, WIN 55,212-2 2, anandamide 2, SR141716A 3 mg/kg, i.p.
Experimental: Capsaicin was administered subcutaneously (12.5 mg/ml, Kaneko, et al., Am. J. Physiol., 275:G1056-G1062 (1998)) in rats anesthetized with ethyl ether. The total dose of capsaicin (125 mg/kg) was divided into three injections (25 mg/kg in the morning and 50 mg/kg in the afternoon of the first day, 50 mg/kg on the 2nd day). Control rats received vehicle injections. […] Water intake (in ml/4 hr) was: vehicle 13.6±1.4; capsaicin rats 24.0±1.9, P<0.01 (n=12).
The can was retired and intake was recorded.

[5] = Food intake in vagotomized or capsaicin-treated rats, Example 3; format: in vivo, rat; settings: for food intake after vagotomy or capsaicin treatment: rats, OEA 10, Wy-14643 40 mg kg^−1 i.p.; for food intake 30 min / food intake 60 min / food intake 120 min / food intake 240 min: 24-h food-deprived, Wy-14643 40 mg kg^−1 i.p.
[6] = Food intake studies in food-deprived or partially satiated rats (i.p. or i.c.v.), Example 8; settings: for food intake in partially satiated rats, systemic (i.p.) administration: 24 h food-deprived, allowed to eat 60 min before drug; for food intake in 24 h food-deprived rats, systemic (i.p.) administration: anandamide or WIN 55,212-2 0.1-2 mg/kg
Experimental: Drugs were administered by i.p. injection 15 min prior to food presentation in a volume of 1 ml/kg. For i.c.v. administration the obturator was removed from the guide cannula and an 8-mm injector (30-gauge stainless steel tubing) that was connected to 70 cm of calibrated polyethylene-10 tubing was lowered into the ventricle. The tubing was then raised until flow began and 5 μl of drug solution were infused over a 30-60 s period. The injector was left in the guide cannula for additional 30 s and then removed. The stylet was immediately replaced. Animals were tested 5 min after injections. The i.c.v. cannula placements were evaluated after each experiment by dye injection. Only those rats with proper i.c.v. placements were included in the data analysis.
The animals were then food-deprived for 24 h, with free access to water. 15 min after drug administration, the animals were returned to their home cage, where a can with a measured amount of food (usually 30-40 g) a bottle containing 250 ml of fresh water were placed. Food pellets and food spillage were weighed at 60,120 and 240 min after starting the test, and the amount of food eaten was recorded. At the end of the test, the amount of water consumed was also measured. For partial satiation of animals, 24 h food-deprived rats were allowed to eat from the can during 1 h. The can was retired and intake was recorded. 15 min after drug injections, the food was again presented, and the amount consumed was recorded hourly for the following 4 h.

PPAR-α-regulated genes = experiment: Real time quantitative PCR of gene expression in mouse intestine and liver; format: in vivo; settings: for expression of PPAR-α-regulated genes (PPAR-α, FAT/CD36, FATP1): jejunum of wild-type mice, OEA or oleic acid 10, Wy-14643 30 mg kg^−1 i.p.
Experimental: (§1) Tissues were stored in RnaLater™ (Ambion), extracted total RNA with TRIzol™ (Invitrogen) and quantified it with Ribogreen™ (Molecular Probes). cDNA was synthesized by using SuperscriptII RNase H-reverse transcriptase (Invitrogen).
(§2) Reverse transcription of total RNA (2 μg) was performed using Oligo(dT)12-18 primer (0.2 μg) for 50 min at 42° C. Real Time Quantitative (RTQ) PCR was conducted using an ABI PRISM 7700 sequence detection system (Applied Biosystems). Primer/probe sets were designed using the Primer Express™ software and gene sequences available from the Genebank™ database. Primers and fluorogenic probes were synthesized by TIB (Adelphia). The primer/probe sequences for the mouse genes were:
(§3) RNA levels were normalized by using glyceraldehyde 3-phosphate dehydrogenase (GAPDH) as an internal standard. mRNA levels were measured by generating six-point serial standard curves using mouse total RNA. Estimates of relative mRNA abundance (in arbitrary units) were made by using the CT value (Schmittgen et al., 2000). Relative quantifications of RNAs of interest were made by using the 2^ΔCT formula, in which ΔCT was calculated by subtracting the CT value for GAPDH from the CT value for the gene of interest. This formula was validated for each primer/probe set by using six-point serial standard curves.

iNOS = experiment: Transrepression of iNOS expression in mouse jejunum; format: in vivo; settings: jejunum of C57BL/6J mice; OEA or oleic acid 10, Wy-14643 30 mg kg^−1 i.p.
Experimental: as §1, §2, §3

Open field test = format: in vivo, rat
Experimental: Rats were habituated to the field for 10 min the day before testing. On the experimental day, the animals were placed in the center of the field and locomotor activity (number of lines crossed) and exploratory behavior (number of rearings and time spent in the center of the field) were scored for 5 min. All the experiments were performed 60 min after drug injections, and behavior was scored by trained observers blind to experimental conditions.

CCCCCCCCCCCCCCCC(=O)NCCO [Palmitoylethanolamide, palmitoylethanolamide]
food intake (hypophagia) [1]: active but significantly less potent than OEA
mimicry of the OEA effect on skeletal muscle fatty acid oxidation (Soleus muscle): only partially

CCCCCCCCCCCCCCCCCC(=O)NCCO [stearylethanolamide]
PPARα activation (human PPARα): did not elicit a response

CCK-8
feeding response in capsaicin-treated rats [2]: failed to respond
feeding in PPARα-deficient mice [3]: responded normally
effect of capsaicin treatment on the drug's feeding response [4]: abolished the anorexic response; also recorded: abolished the anorexic effect

Cc1cc(SCc2sc(-c3ccc(C(F)(F)F)cc3)nc2C)ccc1OCC(=O)O [GW501516, [2-Methyl-4-[4-methyl-2-(4-trifluoromethyl-phenyl)-thiazol-5-ylmethylsulfanyl]-phenoxy}-acetic acid]
food intake in C57BL/6J mice [3]: did not affect feeding; also recorded: Lack of effect

CC(C)(Sc1ccc(CCN(CCCCC2CCCCC2)C(=O)NC2CCCCC2)cc1)C(=O)O [GW7647, 2-(4-{2-[3-Cyclohexyl-1-(4-cyclohexyl-butyl)-ureido]-ethyl}-phenylsulfanyl)-2-methyl-propionic acid]
meal pattern analysis (eating latency, meal size, post-meal interval) [3]: selective prolongation of eating latency
food intake in C57BL/6J mice [3]: inhibited food intake

CCOC(=O)C(C)(C)Oc1ccc(Cl)cc1 [clofibrate, 2-(4-chlorophenoxy)-2-methylpropanoic acid, ethyl ester]
food intake in C57BL/6J mice [3]: did not

CCN[C@@H](C)Cc1cccc(C(F)(F)F)c1 [d-fenfluramine]
feeding in PPARα-deficient mice [3]: responded normally
food intake after vagotomy or capsaicin treatment [5]: not

CCCCCCCCCCCCCC(=O)NCCO [myristylethanolamide]
PPARα activation (human PPARα): ineffective

Cc1c(C(=O)c2cccc3ccccc23)c2cccc3c2n1[C@H](CN1CCOCC1)CO3 [WIN 55,212-2]
effect of capsaicin treatment on the drug's feeding response [4]: loss of the hyperphagic effects; also recorded: did not produce hyperphagia
motor effect at the highest central dose ([6]; 10 μg i.c.v.): motor impairment
immobility ([6]; 10 mg/kg i.p.): profound immobility
food intake in partially satiated rats, systemic (i.p.) administration [6]: significant and prolonged hyperphagia; also recorded: promoted hyperphagia
food intake in 24 h food-deprived rats, systemic (i.p.) administration [6]: no effect
food intake after central (i.c.v.) administration [6]: no effect on feeding

Cc1cccc(Nc2cc(Cl)nc(SCC(=O)O)n2)c1C [Wy-14643]
meal pattern analysis (eating latency, meal size, post-meal interval) [3]: selective prolongation of eating latency
feeding in PPARα-deficient mice [3]: did not respond
food intake in C57BL/6J mice [3]: inhibited food intake
food intake 30 min ([5]; capsaicin-treated rats): 2.2 ± 1.2
food intake 60 min ([5]; capsaicin-treated rats): 3.7 ± 1.6
food intake 120 min ([5]; capsaicin-treated rats): 4.9 ± 1.5
food intake 240 min ([5]; capsaicin-treated rats): 7.8 ± 1.9
food intake 30 min ([5]; control rats): 2.3 ± 1.3
food intake 60 min ([5]; control rats): 3.6 ± 1.2
food intake 120 min ([5]; control rats): 5.8 ± 1.3
food intake 240 min ([5]; control rats): 6.4 ± 1.8
food intake after vagotomy or capsaicin treatment [5]: prevented the hypophagic effects
expression of PPAR-α-regulated genes (PPAR-α, FAT/CD36, FATP1) (PPAR-α-regulated genes): mimicked the effects of OEA
gene expression in mice deficient in PPAR-α (PPAR-α-regulated genes; jejunum, OEA 10, Wy-14643 30 mg kg^−1 i.p.): did not stimulate gene expression
iNOS expression (iNOS): significantly decreased

O=c1ccc2[nH]cc(C3=CCNCC3)c2[nH]1 [CP-93129]
feeding response in capsaicin-treated rats [2]: responded normally
effect of capsaicin treatment on the drug's feeding response [4]: not

Cc1c(C(=O)NN2CCCCC2)nn(-c2ccc(Cl)cc2Cl)c1-c1ccc(Cl)cc1 [SR141716A, N-piperidino-5-(4-chlorophenyl)-1-(2,4-dichlorophenyl)-4-methylpyrazole-3-carboxamide]
rearing frequency in the open field (Open field test; i.c.v. SR141716A 10 μg, i.c.v. vehicle 16.6±3.1): 4.9±1.1 number of events per 5 min
rearing frequency in the open field (Open field test; i.p. SR141716A 3 mg/kg, i.p. vehicle 17.9±2.3): 9.4±2.0 number of events per 5 min
exploratory behavior in the open field (Open field test; irrespective of the administration route): reduced exploratory behavior
effect of capsaicin treatment on the drug's feeding response [4]: loss and abolishes the reduction of food intake
food intake in partially satiated rats, systemic (i.p.) administration [6]: dose-dependent reduction of food intake
food intake in 24 h food-deprived rats, systemic (i.p.) administration [6]: dose-dependent reduction of food intake; also recorded: reduced food intake
food intake after central (i.c.v.) administration [6]: no effect; also recorded: did not affect food intake

CCCCCCCC/C=C\CCCCCCCC(=O)O [oleic acid]
food intake (hypophagia) [1]: no effect
mimicry of the OEA effect on skeletal muscle fatty acid oxidation (Soleus muscle): not
EC50 (human PPARα): 10.3 ± 0.21 µM
expression of PPAR-α-regulated genes (PPAR-α, FAT/CD36, FATP1) (PPAR-α-regulated genes): not
iNOS expression (iNOS): ineffective
